Results reported in publication PMC6736730 (Biochemistry, 2019).

Experiments:
[1] = target: T1, msAPAH (Marinobacter subterrani, UniProt A0A0J7JFD7); test: Steady-state kinetics of acetylpolyamine hydrolysis; format: biochemical; conditions: 25° C, pH 7.75, triplicate; N^8-acetylspermidine value at 0 mM KCl
[2] = target: T1, msAPAH; test: Isothermal titration calorimetry; format: binding; conditions: ITC, 25 °C; inhibitor 7 with 5% (v/v) DMSO
[3] = target: T1, msAPAH; test: Inhibitory activity measurements; format: biochemical
[4] = target: T1, msAPAH; test: Hydrolysis of acetyllysine substrates; format: biochemical; conditions: acetyllysine (Aly) and MSH2-based peptide substrates; LC-MS assay

Row | Km [1] [µM] | dissociation constant / enthalpogram fit (in words) [2] | IC50 [3] [µM] | SMILES | other results
1 | 44 ± 10 | – | – | CC(=O)NCCCCN [acetylputrescine] | –
2 | – | – | 410 | NCCCCCC(=O)NO [Inhibitor 4, 6-amino-N-hydroxyhexanamide] | –
3 | 1300 ± 600 | – | – | CC(=O)NCCCNCCCCNCCCN [acetylspermine] | –
4 | – | micromolar dissociation constants | 470 | NCCCNCCCCCC(=O)NO [Inhibitor 6, 6-[(3-aminopropyl)amino]-N-hydroxyhexanamide] | –
5 | – | nanomolar dissociation constant | 160 | NCCCNCCCCCS [Inhibitor 3, 5-[(3-aminopropyl)amino]pentane-1-thiol] | –
6 | 800 ± 300 | – | – | CC(=O)NCCCCCN [acetylcadaverine] | –
7 | – | – | – | CC(=O)NCCCC[C@H](N)C(N)=O [Aly-NH2] | catalytic activity for hydrolysis [4]: No significant catalytic activity
8 | – | – | 380 | NCCCCCCCC(=O)NO [Inhibitor 5, 8-amino-N-hydroxyoctanamide] | –

Row | SMILES | Km [1] [µM] | dissociation constant / enthalpogram fit (in words) [2] | IC50 [3] [µM] | other results
9 | CN(C)c1ccc(C(=O)NCCCCCCC(=O)NO)cc1 [Inhibitor 7, reference compound] | – | could not be fit to binding curves | – | –
